ChEMBL document CHEMBL5226365, “Xylochemical Synthesis and Biological Evaluation of the Orchidaceous Natural Products Isoarundinin I, Bleochrin F, Blestanol K, and Pleionol” (J Nat Prod, 2023)

Legend:
[1] = test system: CCRF-CEM; assay: Cytotoxicity against human CCRF-CEM cells assessed as inhibition of cell growth incubated for 72 hrs by resazurin assay; type: functional, cell-based
[2] = test system: ADR5000 cell line; assay: Cytotoxicity against human CEM/ADR5000 cells overexpressing P-gp assessed as inhibition of cell growth incubated for 72 hrs by resazurin assay; type: functional, cell-based; conditions: ADR5000, 72 h
[3] = Resistance index, ratio of IC50 for cytotoxicity against human CEM/ADR5000 cells overexpressing P-gp to IC50 for cytotoxicity against human CCRF-CEM cells; type: functional
[4] = Cytotoxicity against human PBMC assessed as cell viability at 100 uM incubated for 72 hrs by resazurin assay; type: toxicity, cell-based

Row | Compound | IC50 [1] [µM] | IC50 [2] [µM] | Ratio IC50 [3] | Activity [4]
1 | COc1cc(O)cc(CCc2cccc(O)c2)c1Cc1ccc(O)cc1 | 43.4 | 60.4 | 1.4 | Non-Toxic
2 | COc1cc(C2c3ccc(O)cc3CCc3cc(O)cc(OC)c32)ccc1O (stereo unspecified) | 18.7 | 17.2 | 0.9 | Non-Toxic
3 | COc1cc(O)c(Cc2ccc(O)cc2)c2c1C(c1ccc(O)cc1)c1ccc(O)cc1CC2 (racemic) | 6.7 | 47.8 | 7.1 | Non-Toxic
4 | COc1cc(O)cc2c1C(c1ccc(O)cc1)c1ccc(O)cc1CC2 (racemic) | 45.7 | > 100 |  | Non-Toxic
5 | COc1cccc2c1C(=O)c1c(O)c3c(c(O)c1C2=O)C[C@@](O)(C(=O)CO)C[C@@H]3O[C@H]1C[C@H](N)[C@H](O)[C@H](C)O1 [DOXORUBICIN] |  |  | >1000 | 
